Assay results taken from the NIST ThermoML archive (doi:10.1016/j.jct.2005.04.010).
± gives the expanded uncertainty stated by the source.

Assays:
[1] = 101.33 kPa, Liquid
[2] = wn = mass fraction of the nth substance listed; settings: 101 kPa, Liquid, w1 = 0.5

CCCC[N+]1(C)CCCC1.O=S(=O)([N-]S(=O)(=O)C(F)(F)F)C(F)(F)F
[1]
Settings | mass density [kg/m3]
298.15 K | 1394 ± 5
303.15 K | 1390 ± 5
308.15 K | 1388 ± 5
313.15 K | 1386 ± 5
318.15 K | 1383 ± 5
323.15 K | 1381 ± 5
328.15 K | 1379 ± 5
333.15 K | 1377 ± 5
338.15 K | 1373 ± 5
343.15 K | 1370 ± 5
348.15 K | 1366 ± 5

CCn1cc[n+](C)c1.O=S(=O)([N-]S(=O)(=O)C(F)(F)F)C(F)(F)F + CCCC[n+]1ccn(C)c1.O=S(=O)([N-]S(=O)(=O)C(F)(F)F)C(F)(F)F
[2]
Settings | mass density [kg/m3]
293.15 K | 1483 ± 6
298.15 K | 1479 ± 6
303.15 K | 1474 ± 6
308.15 K | 1469 ± 6
313.15 K | 1464 ± 6
318.15 K | 1459 ± 6
323.15 K | 1454 ± 6
328.15 K | 1449 ± 6
333.15 K | 1445 ± 6
338.15 K | 1440 ± 6
343.15 K | 1435 ± 6
348.15 K | 1430 ± 6
353.15 K | 1425 ± 6
358.15 K | 1421 ± 6
